Experimental data from patent US12409172B2, “Dosage regimen” (UNION therapeutics A/S, priority 2023, dated 2025).

Test system: adults with moderate to severe atopic dermatitis
Test: Phase 2b dose-ranging study in atopic dermatitis (Example 8): efficacy (EASI, IGA-AD, PGIC)
Assay type: in vivo, human
Conditions: for patients achieving IGA0/1 responses at week 16: MI
Description: A 16-week, phase 2b, double-blinded, placebo-controlled, dose-finding study assessing efficacy and safety of orismilast modified-release (MR) tablets in adults with moderate-to-severe atopic dermatitis was carried out (NCT05469464). Patients were randomized (1:1:1:1) to orismilast 20, 30, 40 mg or placebo, twice daily. Randomized and dosed patients were included in the Intent-to-Treat Population (used for efficacy and safety). Missing data was handled using Multiple Imputation (MI) for the analysis of primary and secondary efficacy endpoints.
The exploratory objectives are to: • Evaluate pharmacokinetic (PK) and pharmacodynamic parameters relevant to AD • Evaluate the effect of orismilast on the pulmonary status and course of the disease in patients with asthma Primary Endpoint • Percentage change in Eczema Area and Severity Index (EASI) score from Baseline at Week 16. […]

Question: `O=C(Cc1c(Cl)c[n+]([O-])cc1Cl)c1ccc(OC(F)F)c2c1OC1(CCS(=O)(=O)CC1)O2` [orismilast, 2-(3,5-dichloro-1-oxidopyridin-1-ium-4-yl)-1-[7-(difluoromethoxy)-1′,1′-dioxospiro[1,3-benzodioxole-2,4′-thiane]-4-yl]ethanone] was tested. Which “patients achieving IGA0/1 responses at week 16” value (20 mg BID (n=58)) did it give?
Answer: 26.3%

Question: What about the “patients achieving IGA0/1 responses at week 16” value (30 mg BID (n=61)) of the same compound?
Answer: 24.3%

Question: And the “mean percentage change in EASI at week 16” value (30 mg BID, p>0,05)?
Answer: −52.2%

Question: What about the “patients achieving IGA0/1 responses at week 16” value (40 mg BID (n=59)) of the same compound?
Answer: 30.9%

Question: And the “Patient Global Impression of Change of "much improved" or "very much improved" compared to placebo at week 16” value (active arms (20, 30, 40 mg BID))?
Answer: improved significantly
